Legend:
[1] = Lipid-improving action in SD rats: blood biochemical examinations (triglyceride, HDL-cholesterol); format: in vivo; conditions: Rattus norvegicus, po, 100 mg/kg orally every day for 5 days or 2 weeks, plasma 4 hours after final administration, vs control group, read-out: Rate of increase in HDL-cholesterol levels (%)
Procedure: (§1) 8-week-old SD rats (Japan Charles River: average body weight of about 350 g) were used. 5% aqueous gum arabic suspension, which was prepared such that the dosage of a compound of the present invention was 100 mg/kg body weight, was orally administered to the experimental group in an amount of 5 ml/kg body weight. 5% aqueous gum arabic suspension (not containing any compounds of the present invention) was orally administered to the control group in an amount of 5 ml/kg body weight. The rats were grouped according to their body weight at 8 weeks of age such that each group had 5 rats. The test compounds were orally administered every day at a fixed time for 5 days or 2 weeks, starting when the rats were 9 weeks old. Body weight was regularly measured during the period of oral administration, and the body weight gain-inhibiting effect was observed. 4 hours after the final administration of the test compound, blood was collected from the vein, plasma was separated from the collected blood, and blood biochemical examinations (triglyceride, HDL-cholesterol) were carried out.
Blood biochemical examinations of rats in the control group and the experimental group were performed. The rates of change (%) were calculated according to the following formulae from the measured values obtained from the blood biochemical examinations. […] Rate of decrease in triglyceride levels (%)=[(mean value of the control group)−(mean value of the experimental group)]/(mean value of the control group)×100 Rate of increase in HDL-cholesterol levels (%)=[(mean value of the experimental group)−(mean value of the control group)]/(mean value of the control group)×100

[2] = Body weight gain-inhibiting effect in normal SD rats; format: in vivo; conditions: Rattus norvegicus, po, 100 mg/kg orally every day for 5 days or 2 weeks, vs control group, read-out: Rate of inhibition of body weight gain (%)
Procedure: as §1
The rate of inhibition of body weight gain (%) was calculated from the measured body weights of rats in the control group and the experimental group, according to the following formula. […] Rate of inhibition of body weight gain (%)=[(mean value of the control group)−(mean value of the experimental group)]/(mean value of the control group)×100

[3] = biological target: T1, LPL (lipoprotein lipase) (Homo sapiens, UniProt P06858); assay: Confirmation test of LPL activation effect in human skeletal muscle cells; format: cell-based; conditions: 8 hours exposure, vs control group
T1 construct: endogenous in cells; host or cells: human skeletal muscle myoblasts, differentiated
T1 sequence (P06858 28-475): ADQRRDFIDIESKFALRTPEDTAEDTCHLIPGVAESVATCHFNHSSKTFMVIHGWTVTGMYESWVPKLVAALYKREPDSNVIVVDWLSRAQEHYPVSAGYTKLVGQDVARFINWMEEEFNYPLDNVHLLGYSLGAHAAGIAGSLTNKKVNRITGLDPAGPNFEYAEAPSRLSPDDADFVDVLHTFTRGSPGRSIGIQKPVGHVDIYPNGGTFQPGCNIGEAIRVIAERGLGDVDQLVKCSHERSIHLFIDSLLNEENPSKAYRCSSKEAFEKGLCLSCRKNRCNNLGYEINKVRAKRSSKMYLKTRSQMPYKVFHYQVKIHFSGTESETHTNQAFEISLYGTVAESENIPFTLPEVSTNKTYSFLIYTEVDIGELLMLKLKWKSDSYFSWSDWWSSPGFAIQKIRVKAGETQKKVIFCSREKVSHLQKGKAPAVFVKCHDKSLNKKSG
Procedure: Human skeletal muscle cells (human skeletal muscle myoblasts) or mouse skeletal muscle cells (C2C12 cells) that were seeded onto plates, cultured, and differentiated were exposed to a 0.3% dimethyl sulfoxide-containing culture medium in which the compound of the present invention was dissolved (concentration: 10 μM or 30 μM). The medium was removed 8 hours after exposure, 10 mM of Tris-HCl buffer (150 mM NaCl, 10 μ/mL; containing heparin sodium) was added to the cells, and the cells were incubated at 37° C. in the presence of 5% CO2 for 10 minutes. LPL activity in the supernatant was measured using an LPL activity assay kit (made by Roar Biomedical Inc.). LPL activity was evaluated based on the increase in fluorescence intensity 10 to 70 minutes after mixing the supernatant with the LPL substrate. The mean value of the increase in fluorescence intensity of the cells exposed to a 0.3% dimethyl sulfoxide-containing culture medium […] was used as mean value of the control group. Note that the compounds of Examples 18, 19, 32, 45 and 57 were tested using human skeletal muscle cells, and other compounds were tested using mouse skeletal muscle cells. The rate of increase (%) was calculated from the measured values of LPL activity in the control group and the experimental group, according to the following formula. Rate of increase in LPL activity (%)=[(mean value of the experimental group)−(mean value of the control group)]/(mean value of the control group)×100

[4] = biological target: T2, LPL (lipoprotein lipase) (Mus musculus, UniProt P11152); assay: Confirmation test of LPL activation effect in mouse skeletal muscle cells (C2C12 cells); format: cell-based; conditions: 8 hours exposure, vs control group
T2 construct: endogenous in cells; host or cells: C2C12 cells, differentiated
T2 sequence (P11152 28-474): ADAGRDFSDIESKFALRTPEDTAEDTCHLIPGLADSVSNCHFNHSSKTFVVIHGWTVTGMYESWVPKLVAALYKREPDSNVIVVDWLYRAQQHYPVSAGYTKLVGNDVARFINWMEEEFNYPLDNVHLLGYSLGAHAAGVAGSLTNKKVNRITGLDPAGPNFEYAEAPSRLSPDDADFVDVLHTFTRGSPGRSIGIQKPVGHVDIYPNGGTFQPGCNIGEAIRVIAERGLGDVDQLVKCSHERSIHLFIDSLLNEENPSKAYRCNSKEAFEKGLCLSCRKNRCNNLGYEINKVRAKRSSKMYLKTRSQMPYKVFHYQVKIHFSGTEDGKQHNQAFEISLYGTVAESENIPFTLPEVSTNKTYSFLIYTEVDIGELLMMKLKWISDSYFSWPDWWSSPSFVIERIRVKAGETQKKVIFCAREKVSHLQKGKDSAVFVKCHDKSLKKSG
Summary of the method: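 Differentiated human skeletal muscle myoblasts or mouse C2C12 cells were exposed to compound at 10 μM or 30 μM in 0.3% DMSO medium for 8 h, then LPL was released with heparin-containing Tris-HCl buffer (10 min, 37° C). Supernatant LPL activity was taken as the fluorescence increase 10–70 min after adding substrate; % increase is calculated versus the DMSO control mean.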

[5] = Confirmation test of anti-obesity action in dietary-obese mice; format: in vivo; conditions: AKR/J mice on high-fat diet (60% kcal fat), 20 mg/kg orally every day for 4 weeks, vs control group
Procedure: AKR/J mice were used. These mice were fed a high-fat diet with 60% kcal fat, and a model of dietary obesity was developed. 5% aqueous gum arabic suspension, which was prepared such that the dosage of a compound of the present invention was 20 mg/kg body weight, was orally administered to the experimental group of obese mice in an amount of 5 ml/kg body weight. […] The mice were grouped according to body weight. The test suspension was administered everyday at a fixed time for 4 weeks. Body weight was measured during the period of oral administration, and the body weight gain-inhibiting effect was confirmed. The rate of body weight reduction (%) was calculated from the measured body weights of mice in the control group and the experimental group, according to the following formula. […] Rate of body weight reduction (%)=[(mean value of the control group)−(mean value of the experimental group)]/(mean value of the control group)×100

melting point [°C]	Rate of increase in LPL activity ([3]; amount of addition 10 μM) [%]	Rate of increase in LPL activity ([3]; amount of addition 30 μM) [%]	Rate of increase in LPL activity ([4]; amount of addition 10 μM) [%]	Rate of increase in LPL activity ([4]; amount of addition 30 μM) [%]	SMILES	change in vivo at 100 mg/kg [1] [%]	inhibition in vivo at 100 mg/kg [2] [%]	Rate of body weight reduction (%) [5] [%]
167 to 170	23	23			COc1cc(OCc2ccc(Br)cc2F)ccc1-c1c[nH]c(-c2ccc(C(F)(F)F)cc2)n1 [Example 18]	171	13	
158 to 162	24	28			COc1cc(OCc2ccc(Cl)cc2)ccc1-c1c[nH]c(-c2ccc(C(F)(F)F)cc2)n1 [Example 19]	99	11	
158 to 159	22	57			COc1cc(-c2c[nH]c(-c3ccc(C(F)(F)F)cc3)n2)ccc1OCc1ccc(Cl)cc1 [Example 32]	16	8	11

Second part, the compound before the results:

SMILES	melting point [°C]	Rate of increase in LPL activity ([3]; amount of addition 10 μM) [%]	Rate of increase in LPL activity ([3]; amount of addition 30 μM) [%]	Rate of increase in LPL activity ([4]; amount of addition 10 μM) [%]	Rate of increase in LPL activity ([4]; amount of addition 30 μM) [%]	change in vivo at 100 mg/kg [1] [%]	inhibition in vivo at 100 mg/kg [2] [%]	Rate of body weight reduction (%) [5] [%]
COc1cc(OCc2ccc(Br)cc2F)ccc1-c1c[nH]c(-c2cccs2)n1.Cl [Example 23]	249 to 253			40	95			13
COc1cc(OCc2ccc(C#N)cc2)ccc1-c1c[nH]c(-c2ccc(F)cc2)n1.Cl [Example 45]	189 to 191	23	32			27	12	11
COc1cc(OCc2ccc(Br)cc2F)ccc1-c1c[nH]c(-c2ccc(F)cc2)n1.Cl [Example 57]	> 250	19	40			184	14	17

Reference: patent publication US8329739B2, “Phenylimidazole compounds” (Otsuka Pharmaceutical Factory, Inc., priority 2009, dated 2012)
